Tested on: seasonal allergic rhinitis
Test: Double-blinded, randomized clinical trials in seasonal allergic rhinitis patients
Protocol: Efficacy endpoints in all the studies were Total Symptom Score, Total Nasal Symptom Score, Total Non-nasal Symptom Score, and Health Quality of Life (HQOL) analysis in efficacy trials. […] This parameter measures the total symptom relief by the patient after 24 hours before taking the next day dose.

Clc1ccc2c(c1)CCc1cccnc1C2=C1CCNCC1 [Desloratadine, desloratadine]
Total symptom scores (5 mg once daily, adult and adolescent seasonal allergic rhinitis patients): significantly reduced
Reduction of nasal symptoms versus placebo (5 mg, seasonal allergic rhinitis patients): significantly (p<0.01) more effective than placebo
AM NOW total symptom score (24 hours after dose, over the entire dosage range): Statistically significant (p<0.05) reductions were maintained for the full 24 hour dosing interval
